Test results taken from ChEMBL document CHEMBL5223091, “Targeting the Mitotic Kinesin KIF18A in Chromosomally Unstable Cancers: Hit Optimization Toward an In Vivo Chemical Probe” (J Med Chem, 2022).
Values after ≈ are worked out from the molar mass of the structure shown. Active and inactive are the calls of the source. The calls are words filed in the database; no cut-off is given here.

Tests used:
[1] = Half life in CD-1 mouse at 1 mg/kg, iv and 10 mg/kg, po; type: ADME, organism-based; conditions: in vivo
[2] = Drug uptake in CD-1 mouse xenografted with human OVCAR-3 cells measured in tumor at 100 mg/kg, po measured after 8 hrs; type: ADME, organism-based, Neoplasm; conditions: read-out: Drug uptake
[3] = AUC (0 to 24 hrs) in CD-1 mouse xenografted with human OVCAR-3 cells at 100 mg/kg, po by LC-MS/MS analysis; type: ADME, organism-based; parameters: dose 100 mg/kg, route po; conditions: in vivo
[4] = Metabolic stability in mouse liver microsomes assessed as intrinsic clearance at 0.5 uM incubated upto 40 mins by LCMS analysis; type: ADME, Microsome; conditions: read-out: CLH
[5] = Cmax in CD-1 mouse xenografted with human OVCAR-3 cells at 100 mg/kg, po by LC-MS/MS analysis; type: ADME, organism-based; parameters: dose 100 mg/kg, route po; conditions: in vivo
[6] = target: T1, Kinesin-like protein KIF18A (Homo sapiens, UniProt Q8NI77); experiment: Inhibition of recombinant His-tagged human KIF18A (1 to 467 residues) expressed in Trichoplusia ni insect cells assessed as inhibition of microtubule-stimulated ATPase activity preincubated for 30 mins followed by ATP addition and further incubated for 15 mins by ADP-Glo reagent based assay; parameters: species or system Insect cell
T1 sequence (Q8NI77 whole entry): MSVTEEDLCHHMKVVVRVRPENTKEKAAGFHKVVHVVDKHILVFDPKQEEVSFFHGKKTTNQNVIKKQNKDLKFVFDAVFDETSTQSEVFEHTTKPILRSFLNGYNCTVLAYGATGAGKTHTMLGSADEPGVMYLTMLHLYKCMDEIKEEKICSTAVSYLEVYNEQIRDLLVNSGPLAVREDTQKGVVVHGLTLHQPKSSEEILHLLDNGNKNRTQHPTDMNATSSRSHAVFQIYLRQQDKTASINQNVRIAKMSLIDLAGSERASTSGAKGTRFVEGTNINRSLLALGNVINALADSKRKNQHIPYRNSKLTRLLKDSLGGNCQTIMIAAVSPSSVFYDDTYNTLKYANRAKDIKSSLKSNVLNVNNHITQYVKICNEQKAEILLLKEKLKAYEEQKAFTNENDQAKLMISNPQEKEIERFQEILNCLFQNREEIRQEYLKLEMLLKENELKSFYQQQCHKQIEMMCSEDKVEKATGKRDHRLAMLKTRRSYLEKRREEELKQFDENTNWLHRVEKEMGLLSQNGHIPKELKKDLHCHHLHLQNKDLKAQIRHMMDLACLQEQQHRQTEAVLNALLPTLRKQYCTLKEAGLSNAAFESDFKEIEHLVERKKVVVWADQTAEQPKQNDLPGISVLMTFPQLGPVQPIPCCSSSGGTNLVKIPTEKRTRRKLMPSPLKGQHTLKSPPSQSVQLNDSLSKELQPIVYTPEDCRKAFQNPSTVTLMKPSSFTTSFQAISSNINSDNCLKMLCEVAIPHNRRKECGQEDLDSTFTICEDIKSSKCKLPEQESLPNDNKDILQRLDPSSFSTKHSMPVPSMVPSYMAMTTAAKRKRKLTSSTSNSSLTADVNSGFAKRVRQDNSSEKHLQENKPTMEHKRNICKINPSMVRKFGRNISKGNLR

[7] = target: T2, Kinesin-like protein KIF18A (Mus musculus, UniProt Q91WD7); experiment: Inhibition of recombinant His-tagged mouse KIF18A expressed in Trichoplusia ni insect cells assessed as inhibition of microtubule-stimulated ATPase activity preincubated for 30 mins followed by ATP addition and further incubated for 15 mins by ADP-Glo reagent based assay; parameters: species or system Insect cell
T2 sequence (Q91WD7 whole entry): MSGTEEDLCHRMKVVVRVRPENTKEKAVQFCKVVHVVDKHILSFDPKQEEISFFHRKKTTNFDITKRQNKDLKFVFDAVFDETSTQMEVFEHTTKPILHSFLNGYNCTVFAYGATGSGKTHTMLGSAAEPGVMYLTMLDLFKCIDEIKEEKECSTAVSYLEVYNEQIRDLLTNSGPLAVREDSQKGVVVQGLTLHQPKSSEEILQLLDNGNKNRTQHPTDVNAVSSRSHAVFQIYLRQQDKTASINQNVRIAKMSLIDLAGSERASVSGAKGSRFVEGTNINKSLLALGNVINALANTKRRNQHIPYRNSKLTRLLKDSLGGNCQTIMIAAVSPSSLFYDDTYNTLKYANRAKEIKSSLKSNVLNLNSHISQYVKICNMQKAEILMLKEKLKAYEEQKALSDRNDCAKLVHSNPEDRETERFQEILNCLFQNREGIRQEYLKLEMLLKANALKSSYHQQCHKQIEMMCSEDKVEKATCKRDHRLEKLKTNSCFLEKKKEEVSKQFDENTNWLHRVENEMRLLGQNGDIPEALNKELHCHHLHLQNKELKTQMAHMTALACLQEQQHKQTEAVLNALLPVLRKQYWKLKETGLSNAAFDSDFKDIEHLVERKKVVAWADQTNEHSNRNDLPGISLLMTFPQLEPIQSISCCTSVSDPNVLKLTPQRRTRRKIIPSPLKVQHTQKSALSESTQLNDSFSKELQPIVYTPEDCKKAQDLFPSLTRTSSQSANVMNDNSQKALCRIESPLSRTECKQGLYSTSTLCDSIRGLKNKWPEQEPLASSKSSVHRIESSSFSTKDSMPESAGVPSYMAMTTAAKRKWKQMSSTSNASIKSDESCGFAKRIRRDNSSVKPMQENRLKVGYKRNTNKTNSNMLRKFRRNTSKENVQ

[8] = AUC (0 to 24 hrs) in CD-1 mouse xenografted with human OVCAR-3 cells at 100 mg/kg, ip by LC-MS/MS analysis; type: ADME, organism-based; parameters: dose 100 mg/kg, route ip; conditions: in vivo
[9] = Plasma concentration in CD-1 mouse at 100 mg/kg, po measured after 24 hrs; type: ADME, organism-based
[10] = system: OVCAR-3; experiment: Antimitotic activity in human OVCAR-3 cells xenografted in CD-1 mouse assessed as increase in phospho-histone H3 positive cells in tumor at 100 mg/kg, po measured after 24 hrs; type: functional, organism-based
[11] = Volume of distribution at steady state in CD-1 mouse at 1 mg/kg, iv and 10 mg/kg, po; type: ADME, organism-based; conditions: in vivo
[12] = system: OVCAR-3; experiment: Induction of mitotic arrest in human OVCAR-3 cells assessed as p-histone H3 incubated for 24 hrs by mitotic - imaging assay; type: functional, cell-based; conditions: OVCAR-3, 24 h
[13] = target: Centromere-associated protein E (Homo sapiens, UniProt Q02224); experiment: Inhibition of recombinant GST-tagged human CENP-E assessed as inhibition of microtubule-stimulated ATPase activity preincubated for 30 mins followed by ATP addition and further incubated for 15 mins by ADP-Glo reagent based assay
Centromere-associated protein E, sequence (Q02224 whole entry): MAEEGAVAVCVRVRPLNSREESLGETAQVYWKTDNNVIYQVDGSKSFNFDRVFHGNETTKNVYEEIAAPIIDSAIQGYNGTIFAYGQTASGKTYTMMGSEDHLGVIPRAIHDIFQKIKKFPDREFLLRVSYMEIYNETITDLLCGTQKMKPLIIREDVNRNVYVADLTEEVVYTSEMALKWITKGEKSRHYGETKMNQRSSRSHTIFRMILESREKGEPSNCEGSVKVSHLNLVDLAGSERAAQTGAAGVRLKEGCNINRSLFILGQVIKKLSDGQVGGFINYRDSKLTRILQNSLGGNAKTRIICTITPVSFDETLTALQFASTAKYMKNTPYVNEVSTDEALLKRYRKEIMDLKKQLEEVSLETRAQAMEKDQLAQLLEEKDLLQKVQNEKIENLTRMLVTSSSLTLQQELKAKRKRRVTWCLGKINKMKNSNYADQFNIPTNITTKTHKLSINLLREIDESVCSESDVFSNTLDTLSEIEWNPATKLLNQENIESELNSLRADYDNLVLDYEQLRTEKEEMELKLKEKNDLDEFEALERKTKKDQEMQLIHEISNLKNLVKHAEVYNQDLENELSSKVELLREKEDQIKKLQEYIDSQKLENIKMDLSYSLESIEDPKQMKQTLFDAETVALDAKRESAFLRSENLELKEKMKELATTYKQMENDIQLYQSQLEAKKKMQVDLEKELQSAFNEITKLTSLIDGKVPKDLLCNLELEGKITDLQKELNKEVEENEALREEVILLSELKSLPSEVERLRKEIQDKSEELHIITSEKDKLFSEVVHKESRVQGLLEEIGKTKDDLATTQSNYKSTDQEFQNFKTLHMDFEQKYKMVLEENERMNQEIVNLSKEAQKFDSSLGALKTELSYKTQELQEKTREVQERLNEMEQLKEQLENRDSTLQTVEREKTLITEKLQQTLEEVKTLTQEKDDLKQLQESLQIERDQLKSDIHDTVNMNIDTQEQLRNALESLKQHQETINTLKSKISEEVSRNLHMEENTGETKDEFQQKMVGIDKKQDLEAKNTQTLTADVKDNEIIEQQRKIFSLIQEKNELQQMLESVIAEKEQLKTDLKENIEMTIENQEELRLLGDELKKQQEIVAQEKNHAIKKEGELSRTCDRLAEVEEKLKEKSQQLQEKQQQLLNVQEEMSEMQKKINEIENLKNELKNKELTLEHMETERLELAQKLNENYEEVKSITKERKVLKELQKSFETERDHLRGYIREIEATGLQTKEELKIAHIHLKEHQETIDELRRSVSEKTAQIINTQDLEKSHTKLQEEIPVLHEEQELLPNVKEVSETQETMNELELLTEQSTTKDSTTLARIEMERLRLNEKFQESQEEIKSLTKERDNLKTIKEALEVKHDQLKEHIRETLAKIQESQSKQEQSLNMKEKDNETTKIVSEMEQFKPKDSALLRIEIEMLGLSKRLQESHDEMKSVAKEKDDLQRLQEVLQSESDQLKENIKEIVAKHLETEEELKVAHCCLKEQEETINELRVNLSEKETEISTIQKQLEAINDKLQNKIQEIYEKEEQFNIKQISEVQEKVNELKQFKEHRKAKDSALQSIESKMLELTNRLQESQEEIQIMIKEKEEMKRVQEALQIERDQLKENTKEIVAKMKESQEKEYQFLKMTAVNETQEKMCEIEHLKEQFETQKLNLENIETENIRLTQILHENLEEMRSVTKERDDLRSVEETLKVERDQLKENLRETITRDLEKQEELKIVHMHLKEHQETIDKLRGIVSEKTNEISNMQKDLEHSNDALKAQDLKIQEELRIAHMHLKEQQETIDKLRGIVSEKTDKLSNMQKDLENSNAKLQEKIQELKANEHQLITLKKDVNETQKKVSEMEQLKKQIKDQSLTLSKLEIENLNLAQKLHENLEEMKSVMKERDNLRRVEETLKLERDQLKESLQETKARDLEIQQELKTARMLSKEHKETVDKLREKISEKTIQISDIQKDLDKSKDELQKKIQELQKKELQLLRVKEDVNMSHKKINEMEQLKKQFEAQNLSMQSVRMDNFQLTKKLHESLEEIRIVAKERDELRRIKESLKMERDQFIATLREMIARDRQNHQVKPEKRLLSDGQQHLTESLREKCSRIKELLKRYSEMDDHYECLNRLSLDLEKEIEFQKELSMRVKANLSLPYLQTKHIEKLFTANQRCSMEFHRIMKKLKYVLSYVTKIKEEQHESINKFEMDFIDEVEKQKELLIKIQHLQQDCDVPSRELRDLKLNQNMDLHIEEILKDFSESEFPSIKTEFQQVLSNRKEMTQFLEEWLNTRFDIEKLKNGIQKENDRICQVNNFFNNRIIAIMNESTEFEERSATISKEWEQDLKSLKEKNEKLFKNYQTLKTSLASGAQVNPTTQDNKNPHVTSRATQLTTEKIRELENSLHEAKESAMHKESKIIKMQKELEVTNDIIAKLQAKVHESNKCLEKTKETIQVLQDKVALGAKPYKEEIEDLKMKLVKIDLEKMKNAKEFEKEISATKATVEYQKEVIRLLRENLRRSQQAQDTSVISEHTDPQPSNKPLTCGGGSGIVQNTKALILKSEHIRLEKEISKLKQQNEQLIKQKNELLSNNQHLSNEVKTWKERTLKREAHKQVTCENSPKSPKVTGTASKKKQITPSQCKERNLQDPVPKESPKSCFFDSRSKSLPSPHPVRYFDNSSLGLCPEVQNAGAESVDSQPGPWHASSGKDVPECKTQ

[14] = Metabolic stability in human liver microsomes assessed as intrinsic clearance at 0.5 uM incubated upto 40 mins by LCMS analysis; type: ADME, Microsome; conditions: read-out: CLH
[15] = Passive permeability across apical to basolateral side in dog MDCK-MDR1 cells at 5 uM; type: ADME, cell-based, Canis lupus familiaris; conditions: read-out: permeability
[16] = Kinetic solubility of compound in FaSSIF; type: ADME; conditions: read-out: Kinetic_solubility
[17] = Clearance in CD-1 mouse at 1 mg/kg, iv and 10 mg/kg, po; type: ADME, organism-based; conditions: in vivo
[18] = system: OVCAR-3; experiment: Antimitotic activity in human OVCAR-3 cells xenografted in CD-1 mouse assessed as time prolongation of mitotic arrest per day at 100 mg/kg, po; type: functional

- half-life [1]: 1.7 h
- concentration at 8 h [2]: 17.5 µM
- AUC(0-t) [3]: 25.7 µM·h
- microsomal CLint at 0.5 µM [4]: 64 µL/min/mg
- Cmax [5]: 6.1 µM
- IC50 [6]: 96 nM
- IC50 [7]: 77 nM
- AUC(0-t) [8]: 116 µM·h
- concentration at 24 h [9]: 0.03 µM
- Vdss [11]: 2 L/kg
- EC50 [12]: 32 nM
- IC50 [13]: 86000 nM
- microsomal CLint at 0.5 µM [14]: 127 µL/min/mg
- Papp A→B at 5 µM [15]: < 0.3 ×10⁻⁶ cm/s
- solubility kinetic [16]: 209 µM (≈ 112 µg/mL)
- CL [17]: 23.3 mL/min/kg
Structure (SMILES): CC(C)(C)NS(=O)(=O)c1cccc(NC(=O)c2ncc(NS(C)(=O)=O)nc2N2CCC3(CC2)CC3)n1
- Activity [10]: inactive
- Time [18]: >=12 hr
